In brackets after ≈: the same amount, converted by molar mass. Entries after “also recorded” stand apart in the source; their conditions may differ. Read-outs that look alike come from different tables or passages of the source.
Columns and labels:
[1] = Concentrations in urine of rats after a single oral administration; type: in vivo; details: rat; for concentration at 3 h: 0-3 hours; for concentration at 3 h / concentration at 6 h / concentration at 24 h / concentration at 27 h: mean ±S.E., read-out: Urinary level; for concentration at 6 h: 3-6 hours; for concentration at 24 h: 6-24 hours; for concentration at 27 h: 24-27 hours
Str. pyogenes S-8 = assay: Antibacterial activity in vitro, M.I.C., agar dilution streak method; type: cell-based, Streptococcus pyogenes; details: Streptococcus pyogenes, S8; Gram +; read-out: M.I.C.
[2] = Chelate formation with ferric ion; type: physicochemical; details: one third molar equivalent of ferric chloride hexahydrate, molar equivalent of sodium hydroxide, water
From the text: It is known that most of drugs such as Quinoform and Ethambutol which form chelates with metal ions in vivo produce undesirable side effects.

Pr. vulgaris XK Denken = assay: Antibacterial activity in vitro, M.I.C., agar dilution streak method; type: cell-based, Proteus vulgaris; details: Proteus vulgaris; Gram -; read-out: M.I.C.
[3] = Serum concentrations at 30 min. after a single oral administration in rats; details: rat
[4] = system: Pseudomonas aeruginosa IID 1210; assay: Preventive effect against systemic infection with Pseudomonas aeruginosa in mice; type: in vivo, Pseudomonas aeruginosa; mice (ddY, male)
Description: Systemic infection was produced by inoculating male mice (strain: ddY, 6 weeks old, body weight: 28-33g) in intraperitoneally with Pseudomonas aeruginosa IID 1210 suspended in 0.5 ml of Brain heart infusion broth (Eiken) containing 5% mucin. […] Each of these test materials was administered to the mice twice, immediately after and then 6 hours after the inoculation, and the therapeutic effect of each compounds was judged from the survival rate.
(1) Miller L. C. and M. L. Tainter: Estimation of the ED50 and its error by means of logarithmic-probit graph paper Proc. Soc. Exp. Biol. Med. 57 261-264 (1944)
(2) Litchfield J. T. and F. Wilcoxon: A simplified method of evaluating dose - effect J. Pharmacol. 92 99-113 (1948)

[5] = system: Pseudomonas aeruginosa V-1; assay: Antibacterial activity in vitro, M.I.C., agar dilution streak method; type: cell-based; details: Pseudomonas aeruginosa, V1; Gram -; read-out: M.I.C.
[6] = system: Escherichia coli NIHJ JC-2; assay: Influence of serum on antibacterial activity; type: cell-based
Description: (§1) Nutrient agar was heated and melted. […] The diameter of the inhibition zone was measured.

in vivo = details: rat, po, 50 mg/kg
Description: (§2) Nutrient agar was heated and melted. Escherichia coli NIHJ JC-2 was added to melted agar, and well mixed, and 5 ml of the mixture was placed in Petri dish. Penicylinders were placed on the solidified agar, and the cylinder was filled with serum sample. The plate was placed in the incubator of 37° C. for 20 hours. The diameter of the inhibition zone was measured.
(§3) The tissue homogenates were prepared with 1:4 homogenates in M/15 phosphate buffer (pH 7.5).

[7] = Biliary excretion in rats after a single oral administration of 50 mg/kg; details: rat, in vivo, po, 50 mg/kg
[8] = system: Escherichia coli NIHJ JC-2; assay: Influence of kidney homogenate on antibacterial activity; type: cell-based
Description: as §1

[9] = system: Escherichia coli NIHJ JC-2; assay: Influence of rat bile on antibacterial activity; type: cell-based; details: bile of rats
Description: as §1

[10] = rat, in vivo, po, 50 mg/kg
Description: as §2, §3

Shigella sonnei IID 969 = assay: Antibacterial activity in vitro, M.I.C., agar dilution streak method; type: cell-based; details: Shigella sonnei, IID969; Gram -
[11] = system: Bacillus subtilis PCI 219; assay: as above; type: cell-based; details: Bacillus subtilis, PCI219; Gram +; read-out: M.I.C.
[12] = system: Proteus vulgaris IFO 3167; assay: as above; type: cell-based; details: Proteus vulgaris, IFO3167; Gram -; read-out: M.I.C.
[13] = system: Salmonella enteritidis IID 604; assay: as above; type: cell-based; details: Salmonella enterica; Gram -; read-out: M.I.C.
[14] = Serum concentrations after a single oral administration of 50 mg/kg in rats; type: in vivo; details: rat, 50 mg/kg oral
[15] = system: Escherichia coli NIHJ JC-2; assay: Preventive effect against ascending kidney infection in mice with Escherichia coli; type: in vivo, Escherichia coli; mice (ddY, female); details: for effect against ascending kidney infection (in words): mice
Description: Ascending kidney infection was induced in female mice (strain: ddY, 6 weeks old, body weight: 22-26g), by instilling Escherlichia coli NIHJ JC-2 suspended in 0.04 ml of Tryptosoya broth (Nissan) into the urinary tract of mice anesthetized with sodium pentobarbital and by holding for 6 hours the mice in plastic tubes (diameter 25 mm) and clamping the outlet of urinary tract.
Each of these test material was orally administered 3 hours after inoculation. Mice were sacrificed 48 hours after inoculation. Kidneys were removed aseptically and bisected, and the two halves were pressed and streaked on agar plate containing Desoxycholate medium (Nissan). The therapeutic effect of each compound was evaluated from the absence of growth on the agar surface after 20 hours of incubation at 37° C.

Compound `CCn1cc(C(=O)O)c(=O)c2cc(F)c(N3CCNCC3)cc21` [Compound (II), 1-ethyl-6-fluoro-1,4-dihydro-7-(1-piperazinyl)-4-oxoquinoline-3-carboxylicacid] has a concentration at 3 h ([1]; 1.56 mg/kg oral) of 1360 ± 140 ng/mL, a concentration at 6 h ([1]; 1.56 mg/kg oral) of 930 ± 140 ng/mL and a concentration at 24 h ([1]; 1.56 mg/kg oral) of 170 ± 50 ng/mL. It also gave a concentration at 27 h ([1]; 1.56 mg/kg oral) of 40 ± 10 ng/mL, a concentration at 3 h ([1]; 3.13 mg/kg oral) of 3390 ± 550 ng/mL and a concentration at 6 h ([1]; 3.13 mg/kg oral) of 3780 ± 440 ng/mL. It also gave a concentration at 24 h ([1]; 3.13 mg/kg oral) of 580 ± 90 ng/mL, a concentration at 27 h ([1]; 3.13 mg/kg oral) of 30 ng/mL and a concentration at 3 h ([1]; 6.25 mg/kg oral) of 9690 ± 2300 ng/mL. It also gave a concentration at 6 h ([1]; 6.25 mg/kg oral) of 8080 ± 1500 ng/mL, a concentration at 24 h ([1]; 6.25 mg/kg oral) of 1360 ± 200 ng/mL and a concentration at 27 h ([1]; 6.25 mg/kg oral) of 40 ng/mL. The concentration at 3 h ([1]; 12.5 mg/kg oral) was 21900 ± 3600 ng/mL, the concentration at 6 h ([1]; 12.5 mg/kg oral) was 16800 ± 1600 ng/mL and the concentration at 24 h ([1]; 12.5 mg/kg oral) was 4000 ± 500 ng/mL. The concentration at 27 h ([1]; 12.5 mg/kg oral) was 60 ± 20 ng/mL, the concentration at 3 h ([1]; 25.0 mg/kg oral) was 56800 ± 11100 ng/mL and the concentration at 6 h ([1]; 25.0 mg/kg oral) was 46400 ± 3800 ng/mL. It also gave a concentration at 24 h ([1]; 25.0 mg/kg oral) of 13500 ± 3000 ng/mL, a concentration at 27 h ([1]; 25.0 mg/kg oral) of 1200 ± 500 ng/mL and a concentration at 3 h ([1]; 50.0 mg/kg oral) of 89300 ± 19500 ng/mL. It also gave a concentration at 6 h ([1]; 50.0 mg/kg oral) of 99200 ± 15900 ng/mL, a concentration at 24 h ([1]; 50.0 mg/kg oral) of 32200 ± 100 ng/mL and a concentration at 27 h ([1]; 50.0 mg/kg oral) of 3100 ± 900 ng/mL. The Tmax ([1]; oral, read-out: time of concentrations peak in urine) was 0 to 360 min, the MIC (Str. pyogenes S-8) was 1.56 µg/mL (≈ 4.89 µM) and the “chelate compound with ferric ion” value [2] was “did not give any chelate compound when treated with ferric ion”. It also gave an MIC (Pr. vulgaris XK Denken) of 0.2 µg/mL (≈ 0.626 µM), a concentration at 0.5 h ([3]; 25 mg/kg) of 310 ± 40 ng/mL and a concentration at 0.5 h ([3]; 50 mg/kg) of 870 ± 110 ng/mL. The concentration at 0.5 h ([3]; 100 mg/kg) was 1420 ± 230 ng/mL, the concentration at 0.5 h ([3]; 200 mg/kg) was 2230 ± 300 ng/mL and the concentration at 0.5 h ([3]; 400 mg/kg) was 3370 ± 350 ng/mL. The ED90 ([4]; Pseudomonas aeruginosa, IID1210) was 185 mg/kg, the ED50 ([4]; Pseudomonas aeruginosa, IID1210, po, 6 h, read-out: ED50 (95% confidence limit)) was 98 mg/kg and the “protection against systemic infection (in words)” value ([4]; mice, listed as EXAMPLE 2) was “effectively protected the mice from Pseudomonas aeruginosa infection; also recorded: more potent than pipemidic acid and carbenicillin”. For the same compound, the MIC [5] was 0.39 µg/mL (≈ 1.22 µM), the “antibacterial activity in presence of serum (in words)” value [6] was “not decreased by serum” and the concentration at 0.5 h (in vivo) was 11100 ± 2100 ng/g. For the same compound, the concentration at 1 h (in vivo) was 10300 ± 2000 ng/g, the concentration at 2 h (in vivo) was 6500 ± 900 ng/g and the concentration at 4 h (in vivo) was 3500 ± 900 ng/g. The concentration at 6 h (in vivo) was 1400 ± 100 ng/g, the “biliary levels and cumulative excretion (in words)” value [7] was “more excellent than those of nalidixic acid and pipemidic acid” and the concentration at 3 h [7] was 31000 ± 3500 ng/mL. The concentration at 6 h [7] was 26400 ± 3200 ng/mL, the concentration at 24 h [7] was 18900 ± 1600 ng/mL and the concentration at 27 h [7] was 6700 ± 900 ng/mL. The dose excreted at 3 h [7] was 0.6 ± 0.06%, the dose excreted at 6 h [7] was 1.02 ± 0.11% and the dose excreted at 24 h [7] was 2.43 ± 0.23%. The dose excreted at 27 h [7] was 2.5 ± 0.23%, the “antibacterial activity in presence of kidney homogenate (in words)” value [8] was “decreased by liver and kidney homogenate” and the “antibacterial activity in presence of bile (in words)” value [9] was “not influenced by bile of rats”. For the same compound, the “Tissue level, kidney (free concentration)” value ([10]; 30 min) was 7.4 ± 1.4 µg/g, the “Tissue level, kidney (free concentration)” value ([10]; 60 min) was 6.8 ± 1.2 µg/g and the “Tissue level, kidney (free concentration)” value ([10]; 120 min) was 4.4 ± 0.6 µg/g. The “Tissue level, kidney (free concentration)” value ([10]; 240 min) was 1.9 ± 0.2 µg/g, the “Tissue level, kidney (free concentration)” value ([10]; 360 min) was 1.0 ± 0.1 µg/g and the MIC (Shigella sonnei IID 969) was 0.1 µg/mL (≈ 0.313 µM). For the same compound, the MIC [11] was 0.39 µg/mL (≈ 1.22 µM), the MIC [12] was 0.05 µg/mL (≈ 0.157 µM) and the MIC [13] was 0.2 µg/mL (≈ 0.626 µM). For the same compound, the “absorption (in words)” value [14] was “rapid”, the concentration at 0.5 h ([14]; serum, 0.5 hours) was 870 ± 110 ng/mL and the concentration at 1 h ([14]; serum, 1 hour) was 770 ± 130 ng/mL. For the same compound, the concentration at 2 h ([14]; serum, 2 hours) was 520 ± 100 ng/mL, the concentration at 4 h ([14]; serum, 4 hours) was 230 ± 20 ng/mL and the concentration at 6 h ([14]; serum, 6 hours) was 110 ± 10 ng/mL. The Tmax ([14]; serum, read-out: time of concentration peak in serum (converted)) was 30 min, the ED50 ([15]; Escherichia coli, NIHJJC2, 48 h, oral, 3 hours after inoculation, challenge 3.2 × 10^7 cells/mouse, read-out: ED50 (95% confidence limit)) was 15 mg/kg and the ED90 ([15]; Escherichia coli, NIHJJC2, 48 h, oral, 3 hours after inoculation, challenge 3.2 × 10^7 cells/mouse, read-out: ED90) was 61 mg/kg. For the same compound, the “effect against ascending kidney infection (in words)” value [15] was “more potent than nalidixic acid and pipemidic acid” and the “effect against ascending kidney infection (in words)” value ([15]; listed as EXAMPLE 2) was “effective against ascending kidney infection with Escherichia coli in mice”.
